Measurements as given in patent US20080214606A1, “Methods for the Identification and Use of Compounds Suitable for the Treatment of Drug Resistant Cancer Cells” (The Government of the United States of America as …, priority 2004, published 2008).
“Also recorded” adds a separate entry of the source.

How the values were obtained:
[1] = system: KB-V1 cells (over-express MDR1-P-gp) vs parental KB-3-1 cells; assay: MTT assay using the KB-3-1/KB-V1 cell pair; assay type: cell-based, human
Protocol: (§1) Cell survival is measured by the MTT (3-(4,5-Dimethylthiazol-2-yl)-2,5-diphenyltetrazolium) Assay. Cells are seeded in 100 μl medium at a density of 5000 cells/well in 96 well plates, and serially diluted drug (with or without 2 μM PSC 833) is added the following day in 100 μl medium to give the indicated final concentration. Cells are then incubated for 72 hrs at 37° C. in 5% CO2, and the MTT assay is performed according to the manufacturer's instructions (Molecular Probes, Eugene, Oreg.).
To test whether our approach using the NCI-60 does, in fact, identify new substrates, an MTT assay is used to test all top-scoring compounds that were available from DTP for follow-up experiments. KB-3-1, a human carcinoma cell line, and KB-V1, a multidrug resistant derivative of KB-3-1 that over-expresses MDR1-P-gp (Shen et al., 1986, J. Biol. Chem. 261:7762-7770), are used for the tests. […] This resistance of KB-V-1 cells is invariably reversible by PSC 833. The intrinsic fluorescence of one of the compounds, NSC 634791, allows for the measurement of the effect of MDR1 activity on its export from cells.

[2] = target: MDR1 (Homo sapiens, UniProt P08183); assay: Block of MDR1-mediated transport of other molecules; assay type: cell-based
[3] = target: T1, ABCD1 (Homo sapiens, UniProt P33897); assay: Correlation of ABCD1 expression with drug sensitivity across the NCI-60; assay type: cell-based; conditions: Pearson correlation of ABCD1 expression with sensitivity of the 60 cell lines; 1429 compounds; inverse, p < 0.0001
T1 construct: profiled in 60 diverse cancer cell lines (the NCI-60) using real-time RT-PCR; endogenous in cells; host or cells: NCI-60 human cancer cell lines
Protocol: (§2) Expression levels are measured by real-time quantitative RT-PCR using the LightCycler RNA Amplification SYBR Green kit and a LightCycler machine (Roche Biochemicals, Indianapolis, Ind.). […] When possible, the amplicons are designed to encompass exon-intron boundaries to avoid amplification of genomic DNA. Since the Syber Green assay detects accumulation of double stranded DNA, primers are selected (from a battery consisting of about 200 primers) that amplified a single product of the correct size.
RT-PCR is carried out on 150 ng total RNA, in the presence of 250 nM specific primers. Following reverse transcription (20 min at 50° C.), the PCR reaction consists of 45 cycles of denaturation (15 sec at 95° C.), annealing (30 sec at 58° C.), and elongation (30 sec at 72° C.). No-template (water) reaction mixtures are prepared as negative controls.
During PCR amplification, fluorescence emission is measured and recorded in real time by the LightCycler. Crossing point values are calculated, using the LightCycler software package, by the Fit Points analysis method, with baseline fluorescence set at 1. The SyberGreen assay measures accumulation of double-stranded products, and the appearance of primer dimers limits quantitation at high cycle numbers. The specificity of amplified products is verified by melting-curve analysis and agarose gel electrophoresis (not shown). The raw results are expressed as number of cycles to reach the crossing point. If the desired product is not detected, the corresponding value is adjusted to crossing points indicating no expression. To assess the contribution of experimental artifacts, selected cell lines are assessed in replicate.
The two are combined to form a joint dataset that includes 1429 compounds.
To determine quantitatively how well the 47 genes cluster the cell lines by their tissues of origin, a statistical method is employed wherein the kappa statistic is used to indicate how well the observed clusters correspond to the nine tissue-of-origin classifications. […] To control the overall false type 1 error rate, both a step-down procedure (Westfall and Young, 1993, Resampling-Based Multiple Testing: Examples and Methods for p-value Adjustment (New York: Wiley)) and a step-up procedure (Reiner et al., 2003, Bioinformatics 19:368-375) were employed to adjust for multiple testing of all 47 genes simultaneously. In the Benjamini-Hochberg procedure the p-values are computed in the standard way by permutation, assuming that all distributions are exchangeable: the number of values in the permuted data with correlations over a threshold, divided by the number of compounds and by the number of permutations. In this analysis, the False Discovery Rate (q-value) at which each compound would be declared was calculated using the step-up procedure for positively correlated test statistics (again true because all correlations being compared are computed against the same ABC gene): in this procedure the first q-value for the largest correlation is the Bonferroni-corrected p-value for that gene; then further q-values are calculated as qj=max(pj*1429/j, qj-1). This procedure limits the expected proportion of false positives in the list 1, . . . , j to at most qj.

[4] = target: ABCB1 (Homo sapiens, UniProt P08183); assay: Correlation of ABCB1 expression with drug sensitivity across the NCI-60
Chain of ABCB1 (P08183 whole entry): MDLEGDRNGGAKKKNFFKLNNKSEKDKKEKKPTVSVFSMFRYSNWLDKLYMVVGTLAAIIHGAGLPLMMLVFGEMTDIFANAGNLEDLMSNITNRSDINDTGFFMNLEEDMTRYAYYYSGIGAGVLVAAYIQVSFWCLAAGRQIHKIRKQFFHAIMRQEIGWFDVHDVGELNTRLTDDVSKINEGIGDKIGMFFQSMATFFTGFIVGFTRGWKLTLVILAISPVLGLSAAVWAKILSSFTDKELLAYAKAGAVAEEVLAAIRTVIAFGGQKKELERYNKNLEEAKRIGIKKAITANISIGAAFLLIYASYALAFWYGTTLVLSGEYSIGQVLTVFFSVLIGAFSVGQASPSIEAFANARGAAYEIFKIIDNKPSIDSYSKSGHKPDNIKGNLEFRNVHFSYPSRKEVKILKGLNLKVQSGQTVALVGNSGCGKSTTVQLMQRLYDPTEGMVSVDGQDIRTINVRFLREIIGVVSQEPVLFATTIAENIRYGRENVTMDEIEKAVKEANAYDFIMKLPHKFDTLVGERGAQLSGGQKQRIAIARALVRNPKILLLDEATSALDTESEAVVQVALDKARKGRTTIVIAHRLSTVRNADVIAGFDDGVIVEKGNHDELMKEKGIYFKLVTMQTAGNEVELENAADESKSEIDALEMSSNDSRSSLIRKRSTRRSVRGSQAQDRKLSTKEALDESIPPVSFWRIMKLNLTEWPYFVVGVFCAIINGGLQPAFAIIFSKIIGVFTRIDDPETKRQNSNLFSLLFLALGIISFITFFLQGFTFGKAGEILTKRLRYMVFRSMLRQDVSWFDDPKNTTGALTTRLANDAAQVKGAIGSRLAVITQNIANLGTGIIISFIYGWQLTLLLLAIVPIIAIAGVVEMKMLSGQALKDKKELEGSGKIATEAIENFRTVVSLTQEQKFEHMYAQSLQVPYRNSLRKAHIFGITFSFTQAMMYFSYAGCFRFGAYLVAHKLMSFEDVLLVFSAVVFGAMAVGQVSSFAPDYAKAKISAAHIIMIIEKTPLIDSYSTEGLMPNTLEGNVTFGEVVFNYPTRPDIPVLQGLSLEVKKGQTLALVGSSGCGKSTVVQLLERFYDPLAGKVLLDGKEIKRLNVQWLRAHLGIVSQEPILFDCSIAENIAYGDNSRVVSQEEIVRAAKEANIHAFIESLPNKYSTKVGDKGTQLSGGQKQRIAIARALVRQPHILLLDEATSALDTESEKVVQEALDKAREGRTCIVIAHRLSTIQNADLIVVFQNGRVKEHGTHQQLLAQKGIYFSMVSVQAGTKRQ
Summary of the method: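 SYBR Green real-time RT-PCR on 150 ng total RNA with 250 nM primers: RT 20 min at 50 °C, then 45 cycles; expression taken as crossing-point cycle number. Correlated with drug sensitivity of 1429 compounds across the cell panel; permutation p-values with step-down and step-up (FDR q-value) multiple-testing correction.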

[5] = system: KB Hela cells expressing ABCB1(MDR1) under tetracycline control; assay: MTT assay using HeLa-transfectants with human MDR1 under tetracycline control; assay type: cell-based; conditions: absence (On) or presence (Off) of 2 μg/ml tetracycline
Protocol: Panel A is a scatter plot showing positive correlation (r=+0.54; 95% confidence interval 0.259 to 0.713) of ABCB1 expression with sensitivity of the 60 cell lines to NSC 73306. […] Cells are grown in the absence (ABCB1(MDR1)-On) or presence (ABCB1(MDR1)-Off) of 2 μg/ml tetracycline for at least seven days before starting the MTT assay. Cell surface expression and function of ABCB1 (MDR1) are verified prior to the assay by staining with anti-MDR1 monoclonal antibody (MRK-16) and by a performing a functional assay based on MDR1-controlled accumulation of the fluorescent dye Calcein (Homolya et al., 1996, Br. J. Cancer 73:849-855). […] Values are means ±S.E. of triplicate measurements.
as §1, with “Oreg.). […]” for “Oreg.).”

[6] = system: MDR1 positive cells; assay: Pretreatment of MDR1 positive cells with MDR1-potentiated compound (loss of MDR phenotype); assay type: cell-based
Description: In another preferred embodiment, the invention relates to methods of inhibiting the development of a multidrug resistance phenotype in a cancer in a subject comprising administering an ABCB1 potentiated agent to the subject. As used herein, inhibiting the development of a multidrug resistant phenotype refers to both the inhibition of the initial onset of the phenotype or the inhibition of any further development of the multidrug phenotype. It is contemplated as part of the invention that the ABCB1 potentiated agent may be administered simultaneously with a chemotherapeutic agent that is a substrate of the ABCB1 transporter. It is understood as an aspect of the invention that such simultaneous administration refers to administration within the same general time period rather than at the same exact moment in time. Thus treatment with the ABCB1 potentiated compound and the chemotherapeutic agent may be on the same day or on different days, or in the same week or in different weeks. It is within the skill of the ordinary artisan to optimize a treatment schedule to maintain the therapeutic efficacy of the chemotherapeutic agent by administration of the ABCB1 potentiated compound to inhibit the development of drug resistance. MDR1-potentiated compounds may be used to prevent the emergence of drug resistance clones. […]

[7] = target: T2, ABCG2 (Homo sapiens, UniProt Q9UNQ0); assay: Correlation of ABCG2 expression with drug sensitivity across the NCI-60; assay type: cell-based; conditions: Pearson correlation of ABCG2 expression with sensitivity of the 60 cell lines; 1429 compounds; inverse, p < 0.0001
T2 construct: endogenous in cells; host or cells: NCI-60 human cancer cell lines
T2 sequence (Q9UNQ0 whole entry): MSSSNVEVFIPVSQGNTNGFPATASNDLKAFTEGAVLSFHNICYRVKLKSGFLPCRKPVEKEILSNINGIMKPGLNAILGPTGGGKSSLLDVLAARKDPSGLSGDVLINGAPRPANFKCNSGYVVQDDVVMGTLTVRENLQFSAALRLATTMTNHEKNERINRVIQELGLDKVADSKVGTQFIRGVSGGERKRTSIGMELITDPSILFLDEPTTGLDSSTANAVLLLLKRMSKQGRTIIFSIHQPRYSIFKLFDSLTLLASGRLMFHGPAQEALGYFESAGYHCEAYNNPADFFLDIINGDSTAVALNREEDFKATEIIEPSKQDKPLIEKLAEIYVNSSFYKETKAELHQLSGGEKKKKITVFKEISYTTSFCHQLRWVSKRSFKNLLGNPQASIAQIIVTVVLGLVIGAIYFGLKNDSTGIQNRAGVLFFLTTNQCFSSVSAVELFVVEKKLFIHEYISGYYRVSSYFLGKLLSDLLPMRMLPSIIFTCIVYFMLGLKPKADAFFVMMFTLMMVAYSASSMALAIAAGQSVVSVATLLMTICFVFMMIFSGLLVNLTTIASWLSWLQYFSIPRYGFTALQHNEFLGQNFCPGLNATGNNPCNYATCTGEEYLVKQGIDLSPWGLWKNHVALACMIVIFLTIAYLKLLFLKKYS
Protocol: (§3) Expression levels are measured by real-time quantitative RT-PCR using the LightCycler RNA Amplification SYBR Green kit and a LightCycler machine (Roche Biochemicals, Indianapolis, Ind.). Specific oligonucleotide probes are designed for each of the ABC transporters using DNAStar Primer Select (DNASTAR Inc.), and they may be synthesized at Lofstrand Laboratories (Gaithersburg, Md.). When possible, the amplicons are designed to encompass exon-intron boundaries to avoid amplification of genomic DNA. Since the Syber Green assay detects accumulation of double stranded DNA, primers are selected (from a battery consisting of about 200 primers) that amplified a single product of the correct size. […]
(§4) During PCR amplification, fluorescence emission is measured and recorded in real time by the LightCycler. Crossing point values are calculated, using the LightCycler software package, by the Fit Points analysis method, with baseline fluorescence set at 1. The SyberGreen assay measures accumulation of double-stranded products, and the appearance of primer dimers limits quantitation at high cycle numbers. […] The raw results are expressed as number of cycles to reach the crossing point. If the desired product is not detected, the corresponding value is adjusted to crossing points indicating no expression. To assess the contribution of experimental artifacts, selected cell lines are assessed in replicate. […]

[8] = target: T3, ABCC8 (Homo sapiens, UniProt Q09428); assay: Correlation of ABCC8 expression with drug sensitivity across the NCI-60; assay type: cell-based; conditions: Pearson correlation of ABCC8 expression with sensitivity of the 60 cell lines; 1429 compounds; inverse, p < 0.0001
T3 construct: profiled in 60 diverse cancer cell lines (the NCI-60) using real-time RT-PCR; endogenous in cells; host or cells: NCI-60 human cancer cell lines
Protocol: as §2
(§5) RT-PCR is carried out on 150 ng total RNA, in the presence of 250 nM specific primers. […]
as §4

[9] = target: T4, ABCC11 (Homo sapiens, UniProt Q96J66); assay: Correlation of ABCC11 expression with drug sensitivity across the NCI-60; assay type: cell-based; conditions: after removal of the single, high-expressing cell line (T47D)
T4 construct: profiled in 60 diverse cancer cell lines (the NCI-60) using real-time RT-PCR; endogenous in cells; host or cells: NCI-60 human cancer cell lines
Protocol: as §2, §5, §4

[10] = system: ABCC11-transfected LLC-PK1 cells; assay: MTT assay, ABCC11-transfected vs sham-transfected LLC-PK1 cells; assay type: cell-based
Protocol: Panel A is a scatter plot showing the correlation (r) of ABCC11 expression with sensitivity of the 60 cells to NSC 671136 (r=−0.4; 99.99% two-tailed bootstrap confidence interval −0.6726 to −0.0141). […] Values are means ±S.E. of triplicate MTT assays.
as §1
One compound, NSC 671136 (shown in FIG. 5, Panel C), met the stringent bootstrap criterion for significant inverse correlation with the expression of ABCC11 in the 60 cell lines (FIG. 5, Panel A). An MTT assay was used to assess whether over-expression of ABCC11 can confer resistance to the NSC 671136 compound.

[11] = target: T5, ABCC9 (Homo sapiens, UniProt O60706); assay: Correlation of ABCC9 expression with drug sensitivity across the NCI-60; assay type: cell-based; conditions: Pearson correlation of ABCC9 expression with sensitivity of the 60 cell lines; 1429 compounds; inverse, p < 0.0001
T5 construct: profiled in 60 diverse cancer cell lines (the NCI-60) using real-time RT-PCR; endogenous in cells; host or cells: NCI-60 human cancer cell lines
Protocol: as §2, §5, §4

[12] = target: T6, ABCA2 (Homo sapiens, UniProt Q9BZC7); assay: Correlation of ABCA2 expression with drug sensitivity across the NCI-60; assay type: cell-based; conditions: Pearson correlation of ABCA2 expression with sensitivity of the 60 cell lines; 1429 compounds; inverse, p < 0.0001
T6 construct: profiled in 60 diverse cancer cell lines (the NCI-60) using real-time RT-PCR; endogenous in cells; host or cells: NCI-60 human cancer cell lines
Protocol: as §2, §5, §4

[13] = system: MDR1-overexpressing KB-V1 cells; assay: Efflux assay (accumulation of fluorescent NSC 634791, flow cytometry); assay type: cell-based, human
Protocol: The dashed lines indicate the same experiment performed in the presence of 2 μM of the ABCB1 inhibitor, PSC 833 (for KB-3-1, the solid and dashed lines overlap). Values are means ±SE. for representative experiments performed in triplicate. […] The effect of PSC 833 on IC50 values in KB-V1 cells is expressed as a dose modifying factor, DMF=[IC50/IC50+(IC50)PSC833)], where (IC50)PSC833 is the value obtained in the presence of the inhibitor. […] Cells are incubated with 1.74 μM NSC 634791 for 10 min at 37° C. in the presence (peak on the right) or absence (peak on the left) of 2 μM PSC 833.
Trypsinized cells are washed twice in phosphate-buffered saline (PBS). 5×10^5 cells are pre-incubated for 5 min at 37° C. in Iscove's Modified Dulbecco's Medium (Quality Biologicals, Gaithersburg, Md.) with 0.5% dimethyl sulphoxide (DMSO), with or without 2 μM PSC 833. […] Green fluorescence intensity is measured using a FacsCalibur flow cytometer equipped with a 488-nm argon laser (Becton Dickinson Biosciences, San Jose, Calif., USA). […]
To test whether our approach using the NCI-60 does, in fact, identify new substrates, an MTT assay is used to test all top-scoring compounds that were available from DTP for follow-up experiments. […] The intrinsic fluorescence of one of the compounds, NSC 634791, allows for the measurement of the effect of MDR1 activity on its export from cells.

[14] = target: T7, ABCB6 (Homo sapiens, UniProt Q9NP58); assay: Correlation of ABCB6 expression with drug sensitivity across the NCI-60; assay type: cell-based; conditions: Pearson correlation of ABCB6 expression with sensitivity of the 60 cell lines; 1429 compounds; inverse, p < 0.0001
T7 construct: profiled in 60 diverse cancer cell lines (the NCI-60) using real-time RT-PCR; endogenous in cells; host or cells: NCI-60 human cancer cell lines
T7 sequence (Q9NP58 whole entry): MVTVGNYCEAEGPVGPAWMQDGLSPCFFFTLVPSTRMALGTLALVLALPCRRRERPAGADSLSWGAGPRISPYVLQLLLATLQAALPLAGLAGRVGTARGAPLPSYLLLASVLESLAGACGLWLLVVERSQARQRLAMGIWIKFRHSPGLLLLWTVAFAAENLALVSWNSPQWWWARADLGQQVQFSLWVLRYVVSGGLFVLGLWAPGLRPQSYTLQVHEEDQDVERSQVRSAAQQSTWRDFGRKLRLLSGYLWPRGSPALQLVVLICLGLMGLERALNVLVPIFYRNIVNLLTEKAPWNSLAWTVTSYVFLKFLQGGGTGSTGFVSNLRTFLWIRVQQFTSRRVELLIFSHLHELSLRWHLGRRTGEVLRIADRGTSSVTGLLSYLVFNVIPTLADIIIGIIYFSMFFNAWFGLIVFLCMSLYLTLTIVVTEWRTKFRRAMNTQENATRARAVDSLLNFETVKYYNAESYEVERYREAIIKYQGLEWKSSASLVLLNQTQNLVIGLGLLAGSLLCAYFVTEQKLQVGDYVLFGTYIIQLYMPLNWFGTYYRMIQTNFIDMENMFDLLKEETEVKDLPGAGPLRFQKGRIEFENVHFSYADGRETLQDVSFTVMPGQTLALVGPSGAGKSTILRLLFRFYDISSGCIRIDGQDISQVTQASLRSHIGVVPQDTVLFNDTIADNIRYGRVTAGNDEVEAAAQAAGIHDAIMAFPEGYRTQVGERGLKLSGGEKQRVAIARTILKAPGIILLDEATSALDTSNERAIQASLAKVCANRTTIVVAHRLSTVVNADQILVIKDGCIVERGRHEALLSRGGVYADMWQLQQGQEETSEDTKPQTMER
Protocol: as §3, §4

[15] = target: T8, ABCA9 (Homo sapiens, UniProt Q8IUA7); assay: Correlation of ABCA9 expression with drug sensitivity across the NCI-60; assay type: cell-based; conditions: Pearson correlation of ABCA9 expression with sensitivity of the 60 cell lines; 1429 compounds; inverse, p < 0.0001
T8 construct: profiled in 60 diverse cancer cell lines (the NCI-60) using real-time RT-PCR; endogenous in cells; host or cells: NCI-60 human cancer cell lines
T8 sequence (Q8IUA7 whole entry): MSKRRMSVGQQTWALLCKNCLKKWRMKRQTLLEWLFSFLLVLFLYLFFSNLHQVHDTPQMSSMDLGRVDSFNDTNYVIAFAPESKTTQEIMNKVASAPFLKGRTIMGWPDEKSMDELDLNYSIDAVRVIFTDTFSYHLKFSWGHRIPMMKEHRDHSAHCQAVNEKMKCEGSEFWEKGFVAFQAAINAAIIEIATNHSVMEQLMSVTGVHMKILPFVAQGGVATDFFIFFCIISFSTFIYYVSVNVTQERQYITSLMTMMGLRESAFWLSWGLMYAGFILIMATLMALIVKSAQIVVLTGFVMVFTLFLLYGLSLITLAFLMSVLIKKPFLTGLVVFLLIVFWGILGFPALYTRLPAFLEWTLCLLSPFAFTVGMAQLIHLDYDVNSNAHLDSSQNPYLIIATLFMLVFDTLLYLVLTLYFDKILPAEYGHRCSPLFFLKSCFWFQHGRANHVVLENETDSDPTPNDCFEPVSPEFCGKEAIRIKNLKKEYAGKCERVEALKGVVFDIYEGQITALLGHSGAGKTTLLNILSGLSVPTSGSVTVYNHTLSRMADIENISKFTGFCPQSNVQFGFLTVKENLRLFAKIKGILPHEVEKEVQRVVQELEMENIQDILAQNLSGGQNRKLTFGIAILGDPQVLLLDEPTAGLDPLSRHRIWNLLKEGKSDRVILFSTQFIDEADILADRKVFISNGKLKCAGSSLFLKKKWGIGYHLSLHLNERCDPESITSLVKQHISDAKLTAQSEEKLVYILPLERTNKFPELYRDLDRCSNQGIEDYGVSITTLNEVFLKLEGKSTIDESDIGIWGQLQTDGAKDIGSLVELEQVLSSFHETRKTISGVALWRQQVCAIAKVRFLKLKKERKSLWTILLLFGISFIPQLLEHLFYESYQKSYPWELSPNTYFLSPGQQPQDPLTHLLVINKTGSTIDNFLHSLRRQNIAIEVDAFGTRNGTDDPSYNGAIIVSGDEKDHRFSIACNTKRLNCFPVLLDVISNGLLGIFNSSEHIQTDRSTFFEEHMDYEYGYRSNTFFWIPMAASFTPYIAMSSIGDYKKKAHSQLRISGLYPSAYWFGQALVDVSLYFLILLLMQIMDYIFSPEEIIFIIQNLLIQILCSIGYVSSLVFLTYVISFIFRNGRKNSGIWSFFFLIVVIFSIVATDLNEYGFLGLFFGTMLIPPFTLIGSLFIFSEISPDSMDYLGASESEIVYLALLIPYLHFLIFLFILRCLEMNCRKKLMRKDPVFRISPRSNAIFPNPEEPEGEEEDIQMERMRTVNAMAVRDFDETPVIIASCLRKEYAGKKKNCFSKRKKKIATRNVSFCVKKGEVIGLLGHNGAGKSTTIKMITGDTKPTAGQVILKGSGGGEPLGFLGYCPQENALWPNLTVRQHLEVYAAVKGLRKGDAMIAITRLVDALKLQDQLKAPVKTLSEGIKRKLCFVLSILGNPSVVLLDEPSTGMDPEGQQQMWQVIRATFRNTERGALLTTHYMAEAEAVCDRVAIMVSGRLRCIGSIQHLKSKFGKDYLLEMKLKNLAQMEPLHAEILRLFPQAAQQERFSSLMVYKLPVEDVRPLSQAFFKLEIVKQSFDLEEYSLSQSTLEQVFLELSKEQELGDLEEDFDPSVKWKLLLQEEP
Protocol: as §3, §4

[16] = system: ABCC2-transfected MDCKII cells; assay: MTT assay, ABCC2-transfected vs sham-transfected MDCKII cells; assay type: cell-based, dog
Protocol: Panel A is a scatter plot showing the correlation (r) of ABCC2 expression with sensitivity of the 60 cells to NSC 641281 (r=−0.46; 99.99% two-tailed bootstrap confidence interval −0.7987 to −0.0440).
as §1
The ABCC (MRP) subfamily is comprised of nine members that transport structurally diverse lipophilic anions and function as drug efflux pumps (Kruh and Belinsky, 2003, Oncogene 22:7537-52). ABCC2-MRP2 is a canalicular efflux pump with a role in the hepatobiliary excretion of bilirubin glucuronide as well as numerous pharmaceuticals. […] One of these compounds, NSC 641281 (shown in FIG. 4, Panel C), was available from DTP for further testing. […]

## COc1ccc(NC(=S)N/N=C2\C(=O)Nc3c(Cl)cc(Cl)cc32)cc1 [NSC 73306]
[1]; MTT assay with 2 μM PSC 833
  Effect of PSC 833 on the heightened sensitivity of KB-V1 cells: completely reversed sensitivity; also recorded: completely abolished the heightened sensitivity
[1]; MTT assay, 72 hrs
  Sensitivity of KB-V1 cells relative to parental KB-3-1 (potentiation by ABCB1): four- to five-fold; also recorded: approximately four-fold
[2]
  Block of MDR1-mediated transport of other molecules: does not block
[3]
  Correlation: −0.6029
[4]
  Correlation of antiproliferative activity with ABCB1 expression: 0.511
[5]
  Sensitivity of MDR1-On cells relative to MDR1-Off cells: two- to four-fold; also recorded: approximately two-fold
[6]; non-MDR1 substrates such as cisplatin and methotrexate
  Drug sensitivity for non-MDR1 substrates after pretreatment: unchanged
[6]; pretreatment of MDR1 positive cells
  Drug resistance to MDR1 substrates after pretreatment: almost complete elimination of drug resistance

## CCOC(=O)/C=C(\C(=O)OCC)n1cc(C)c(=O)n(Cc2cnnn2CCCCOC(C)=O)c1=O [NSC 694002]
[4]
  Pearson's Correlation Coeff: 0.2442
[7]
  Correlation: −0.3627

## Cn1c2ccc(F)cc2c2ccc3c(c21)C(=O)C=CC3=O [NSC 668844]
[7]
  Correlation: −0.4615

## COc1cc2[nH]c3c(c2cc1OC)CCN[C@@]31CC[C@@]2(CC3c4c(cc(OC)c(O)c42)CCN3C)C[C@@H]1OC (stereo partly drawn) [NSC 626578]
[8]
  Correlation: −0.4335

## CC(=O)c1sc2c(c1OC(=O)c1ccc(Cl)cc1Cl)c(=O)n(-c1ccccc1)c(=S)n2-c1ccccc1 [NSC 671136]
[9]
  Correlation (r) of ABCC11 expression with sensitivity: −0.38
[10]
  Resistance of ABCC11-transfected LLC-PK1 cells relative to sham-transfected cells: two- to three-fold

## COc1cc2c(c(OC)c1OC)-c1cccc(=O)cc1C(NC(C)=O)CC2 (stereo not drawn) [NSC 352277]
[11]
  Correlation: −0.3094

## O=C1c2cccc3cc([N+](=O)[O-])cc(c23)C(=O)N1Nc1ccc([N+](=O)[O-])cc1[N+](=O)[O-] [NSC 679265]
[12]
  Correlation: −0.3298

## CCN(CC)c1ccc(/C=C2/C[N+](C)(C)C/C(=C/c3ccc(N(CC)CC)cc3)C2=O)cc1.[I-] [NSC 634791]
[4]
  Correlation: −0.7900
[13]; 1.74 μM, 10 min at 37° C.
  Accumulation of the fluorescent compound in MDR1-positive cells vs parental KB-3-1: contain less of the fluorescent compound than the parental KB-3-1 cell line
[13]; 2 μM PSC 833
  Effect of PSC 833 on the decreased accumulation: completely reversible

## CC(=O)O[C@@H]1C=C(C=O)[C@](O)(C=O)[C@@]2(C)CCCC(C)(C)[C@H]12 [NSC 277293]
[14]
  Correlation: −0.5055

## C[C@]12CC[C@H]3[C@@H](CCC4=CC(=O)NCC[C@@]43C)[C@@H]1CC[C@@H]2OC(=O)COc1ccc(N(CCCl)CCCl)cc1 [NSC 620480]
[15]
  Correlation: −0.4846

## O=C(O)COc1ccc(C(=O)/C(SS/C(C(=O)c2ccc(OCC(=O)O)c(Cl)c2Cl)=C2\C=C(c3ccc(Br)cc3)SS2)=C2/C=C(c3ccc(Br)cc3)SS2)c(Cl)c1Cl [NSC 641281]
[16]
  Response of ABCC2-overexpressing MDCKII cells vs sham-transfected control: extremely resistant; also recorded: no signs of toxicity even at maximal concentrations

## Cn1c2ccccc2c2ccc3c(c21)C(=O)C=CC3=O [NSC 92937]
[14]
  Correlation: −0.4335

## CCCCCCCCCCCCCCCC(=O)OCC1OC(OC)C2NP(=O)(N(CCCl)CCCl)OC1C2O (stereo not drawn) [NSC 642915]
[15]
  Correlation: −0.4289
